According to PubChem BioAssay (NCI):
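Assay format: 96-well plates, 48-hour exposure. Here, GI50 denotes the concentration required for 50% inhibition of growth. TGI denotes the concentration required for complete inhibition of growth.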

What was measured:
Assay in all cases: NCI-60 cell line screen, 48 h
TK-10 renal = test system: TK-10 renal
UO-31 renal = test system: UO-31 renal
ACHN renal = test system: ACHN renal
SK-MEL-2 melanoma = test system: SK-MEL-2 melanoma
MALME-3M melanoma = test system: MALME-3M melanoma
HOP-92 NSCLC = test system: HOP-92 NSCLC
LOX IMVI melanoma = test system: LOX IMVI melanoma
M14 melanoma = test system: M14 melanoma
OVCAR-8 ovarian = test system: OVCAR-8 ovarian
SW-620 colon = test system: SW-620 colon
CCRF-CEM leukemia = test system: CCRF-CEM leukemia
UACC-257 melanoma = test system: UACC-257 melanoma
EKVX NSCLC = test system: EKVX NSCLC
SNB-75 CNS = test system: SNB-75 CNS
MDA-MB-435 = test system: MDA-MB-435
SK-OV-3 ovarian = test system: SK-OV-3 ovarian
OVCAR-4 ovarian = test system: OVCAR-4 ovarian
HCC-2998 colon = test system: HCC-2998 colon
NCI-H522 lung = test system: NCI-H522 lung
NCI-H460 lung = test system: NCI-H460 lung
MCF7 breast = test system: MCF7 breast
HS 578T breast = test system: HS 578T breast
NCI-H226 lung = test system: NCI-H226 lung
SK-MEL-5 melanoma = test system: SK-MEL-5 melanoma
SF-539 CNS = test system: SF-539 CNS
K-562 leukemia = test system: K-562 leukemia
A498 renal = test system: A498 renal
DU-145 prostate = test system: DU-145 prostate
CAKI-1 renal = test system: CAKI-1 renal
NCI/ADR-RES ovarian = test system: NCI/ADR-RES ovarian
BT-549 breast = test system: BT-549 breast
SNB-19 CNS = test system: SNB-19 CNS
UACC-62 melanoma = test system: UACC-62 melanoma
T-47D breast = test system: T-47D breast
SF-268 CNS = test system: SF-268 CNS
IGROV1 ovarian = test system: IGROV1 ovarian
RXF 393 renal = test system: RXF 393 renal
SN12C renal = test system: SN12C renal
COLO 205 colon = test system: COLO 205 colon
SF-295 CNS = test system: SF-295 CNS
HT29 colon = test system: HT29 colon
SR leukemia = test system: SR leukemia
OVCAR-3 ovarian = test system: OVCAR-3 ovarian
786-0 renal = test system: 786-0 renal
SK-MEL-28 melanoma = test system: SK-MEL-28 melanoma
MDA-MB-231 breast = test system: MDA-MB-231 breast
KM12 colon = test system: KM12 colon
HCT-15 colon = test system: HCT-15 colon
RPMI-8226 leukemia = test system: RPMI-8226 leukemia
HCT-116 colon = test system: HCT-116 colon
OVCAR-5 ovarian = test system: OVCAR-5 ovarian
HOP-62 NSCLC = test system: HOP-62 NSCLC
HL-60(TB) leukemia = test system: HL-60(TB) leukemia
NCI-H23 lung = test system: NCI-H23 lung
MOLT-4 leukemia = test system: MOLT-4 leukemia
U251 CNS = test system: U251 CNS
PC-3 prostate = test system: PC-3 prostate

`CC(C)=NNc1ncnc2c1ncn2C1OC(CO)C(O)C1O` (stereo unspecified) showed a GI50 (TK-10 renal) of 529 nM, a TGI (TK-10 renal) of over 100 µM and a GI50 (UO-31 renal) of 354 nM. For the same molecule, the TGI (UO-31 renal) was 7.68 µM, the GI50 (ACHN renal) was 278 nM and the TGI (ACHN renal) was 3.24 µM. For the same molecule, the GI50 (SK-MEL-2 melanoma) was 1810 nM, the TGI (SK-MEL-2 melanoma) was 29.2 µM and the GI50 (MALME-3M melanoma) was 11.8 µM. It also gave a TGI (MALME-3M melanoma) of over 100 µM, a GI50 (HOP-92 NSCLC) of 503 nM and a TGI (HOP-92 NSCLC) of 5.27 µM. It also gave a GI50 (LOX IMVI melanoma) of 228 nM, a TGI (LOX IMVI melanoma) of 3.25 µM and a GI50 (M14 melanoma) of 752 nM. The TGI (M14 melanoma) was over 100 µM, the GI50 (OVCAR-8 ovarian) was 332 nM and the TGI (OVCAR-8 ovarian) was over 100 µM. The GI50 (SW-620 colon) was 381 nM, the TGI (SW-620 colon) was over 100 µM and the GI50 (CCRF-CEM leukemia) was 581 nM. It also gave a TGI (CCRF-CEM leukemia) of over 100 µM, a GI50 (UACC-257 melanoma) of 5.75 µM and a TGI (UACC-257 melanoma) of over 100 µM. It also gave a GI50 (EKVX NSCLC) of 2950 nM, a TGI (EKVX NSCLC) of over 73.4 µM and a GI50 (SNB-75 CNS) of 1340 nM. For the same molecule, the TGI (SNB-75 CNS) was over 78.1 µM, the GI50 (MDA-MB-435) was 528 nM and the TGI (MDA-MB-435) was 11.7 µM. For the same molecule, the GI50 (SK-OV-3 ovarian) was 324 nM, the TGI (SK-OV-3 ovarian) was 4.22 µM and the GI50 (OVCAR-4 ovarian) was 509 nM. The TGI (OVCAR-4 ovarian) was over 32.1 µM, the GI50 (HCC-2998 colon) was 1940 nM and the TGI (HCC-2998 colon) was over 53 µM. For the same molecule, the GI50 (NCI-H522 lung) was 283 nM, the TGI (NCI-H522 lung) was 3.24 µM and the GI50 (NCI-H460 lung) was 304 nM. It also gave a GI50 (MCF7 breast) of 327 nM, a TGI (MCF7 breast) of over 51.5 µM and a GI50 (HS 578T breast) of 5.8 µM. It also gave a TGI (HS 578T breast) of over 26.3 µM, a GI50 (NCI-H226 lung) of 448 nM and a TGI (NCI-H226 lung) of over 100 µM. For the same molecule, the GI50 (SK-MEL-5 melanoma) was 990 nM, the TGI (SK-MEL-5 melanoma) was 4.2 µM and the GI50 (SF-539 CNS) was 2060 nM. The TGI (SF-539 CNS) was 11.3 µM, the GI50 (K-562 leukemia) was 417 nM and the TGI (K-562 leukemia) was over 100 µM. It also gave a GI50 (A498 renal) of 1430 nM, a TGI (A498 renal) of over 100 µM and a GI50 (DU-145 prostate) of 324 nM. For the same molecule, the TGI (DU-145 prostate) was 2400 nM, the GI50 (CAKI-1 renal) was 303 nM and the TGI (CAKI-1 renal) was 17.1 µM. The GI50 (NCI/ADR-RES ovarian) was 442 nM, the TGI (NCI/ADR-RES ovarian) was over 21.6 µM and the GI50 (BT-549 breast) was 1610 nM. The TGI (BT-549 breast) was 15.4 µM, the GI50 (SNB-19 CNS) was 1430 nM and the TGI (SNB-19 CNS) was over 100 µM. The GI50 (UACC-62 melanoma) was 1210 nM, the TGI (UACC-62 melanoma) was 9.3 µM and the GI50 (T-47D breast) was 542 nM. It also gave a TGI (T-47D breast) of 9.6 µM, a GI50 (SF-268 CNS) of 1410 nM and a TGI (SF-268 CNS) of over 100 µM. The GI50 (IGROV1 ovarian) was 287 nM, the GI50 (RXF 393 renal) was 300 nM and the TGI (RXF 393 renal) was 3.54 µM. For the same molecule, the GI50 (SN12C renal) was 476 nM, the TGI (SN12C renal) was 15.3 µM and the GI50 (COLO 205 colon) was 414 nM. The TGI (COLO 205 colon) was 6.31 µM, the GI50 (SF-295 CNS) was 529 nM and the TGI (SF-295 CNS) was over 33.2 µM. For the same molecule, the GI50 (HT29 colon) was 268 nM, the TGI (HT29 colon) was over 100 µM and the GI50 (SR leukemia) was 414 nM. For the same molecule, the TGI (SR leukemia) was over 22 µM, the GI50 (OVCAR-3 ovarian) was 385 nM and the TGI (OVCAR-3 ovarian) was 1970 nM. The GI50 (786-0 renal) was 720 nM, the TGI (786-0 renal) was 30.4 µM and the GI50 (SK-MEL-28 melanoma) was 4.5 µM. For the same molecule, the TGI (SK-MEL-28 melanoma) was over 100 µM, the GI50 (MDA-MB-231 breast) was 285 nM and the TGI (MDA-MB-231 breast) was 13.6 µM. It also gave a GI50 (KM12 colon) of 378 nM, a TGI (KM12 colon) of 2650 nM and a GI50 (HCT-15 colon) of 217 nM. For the same molecule, the GI50 (RPMI-8226 leukemia) was 537 nM, the TGI (RPMI-8226 leukemia) was 4.04 µM and the GI50 (HCT-116 colon) was 144 nM. For the same molecule, the TGI (HCT-116 colon) was 2070 nM, the GI50 (OVCAR-5 ovarian) was 1160 nM and the TGI (OVCAR-5 ovarian) was over 31.1 µM. The GI50 (HOP-62 NSCLC) was 398 nM, the TGI (HOP-62 NSCLC) was 4.21 µM and the GI50 (HL-60(TB) leukemia) was 402 nM. It also gave a TGI (HL-60(TB) leukemia) of 5.61 µM, a GI50 (NCI-H23 lung) of 1480 nM and a TGI (NCI-H23 lung) of 19.4 µM. The GI50 (MOLT-4 leukemia) was 4.86 µM, the TGI (MOLT-4 leukemia) was over 100 µM and the GI50 (U251 CNS) was 648 nM. The TGI (U251 CNS) was over 100 µM, the GI50 (PC-3 prostate) was 733 nM and the TGI (PC-3 prostate) was 29.1 µM.
